Experimental data reported in US20150366998A1, “ORAL DELIVERY OF DRUG ACTIVES IN LABORATORY ANIMALS USING FAST-DISSOLVING ORAL FILMS” (priority 2014, published 2015).
“Also recorded” adds a separate entry of the source.

How the values were obtained:
female WT mice = test: 24-h two-bottle choice paradigm, 10% ethanol in water (10E) vs water, IVM oral thin film or gavage; type: in vivo
[1] = 30-day oral film study: body weight, food intake, organ weight to tibia length ratio, tolerability; type: in vivo, mice
Excerpt: In this study, there were 4 groups.
IVM was given for 30 days, 5 times per week for 6 weeks. […] After being presented with the tip of the gavage needle, mice would self-administer the oral films.
Ethanol intake was expressed as g/kg/24-h and summarized using means±SEM across groups. A two-way ANOVA was used to analyze 10E intake between the 4 groups over the 30 days of treatment. A one-way ANOVA was used to compare mean 10E intake, 10E preference, water intake, fluid intake, food intake, mouse weight, and organ weight/tibia length ratio across the 4 groups. GraphPAD Prism software (San Diego, Calif.) was used for data analysis.

mice = conditions: cited from earlier work
[2] = IVM 0.21 mg oral thin film, 30 days, vs control and placebo groups
[3] = doses needed to produce the anti-alcohol effects (Bortolato 2013)

CC[C@H](C)[C@H]1O[C@]2(CC[C@@H]1C)C[C@@H]1C[C@@H](C/C=C(\C)[C@@H](O[C@H]3C[C@H](OC)[C@@H](O[C@H]4C[C@H](OC)[C@@H](O)[C@H](C)O4)[C@H](C)O3)[C@@H](C)/C=C/C=C3\CO[C@@H]4[C@H](O)C(C)=C[C@@H](C(=O)O1)[C@]34O)O2 [IVM, ivermectin]
10E (alcohol) intake (female WT mice; IVM 0.21 mg oral thin film, 30 days, 5 times per week for 6 weeks, vs no action and placebo film): drank consistently less 10E; also recorded: effective in reducing 10E intake; also recorded: significantly reduces | 10E preference (female WT mice; [2]): significantly less; also recorded: significantly reduces | total fluid intake (female WT mice; [2]): similar; also recorded: without significantly affecting | decrease of 10E intake compared to baseline (female WT mice; IVM 0.21 mg via fast dissolving oral film, 24-h two bottle choice, female WT mice, n=8, p<0.001 vs baseline): approximately 40% | 10E intake (female WT mice; IVM 5 mg/kg, oral gavage (placebo gavage corn oil)): decreased 10E intake | organ weight to tibia length ratio ([1]; IVM 0.21 mg oral thin film, 30 days, 6 organs analyzed, vs control and placebo groups): no significant difference; also recorded: without significantly affecting | animal weight gain / change in body weight ([1]; IVM 0.21 mg oral thin film, 30 days, vs no action and placebo): similar; also recorded: without significantly affecting | tolerability / overt signs of toxicity ([1]; chronic (30 day) oral administration of IVM via oral film): well tolerated; also recorded: without causing overt signs of toxicity | rewarding properties (addiction liability) (mice; IVM regimen producing anti-alcohol effects): did not exert rewarding properties | ethanol intake in mice (mice; acute and 7 day administration (Yardley 2012)): significantly reduce | anxiolytic-like effects (mice; [3]): elicited anxiolytic-like effects | overt signs of toxicity (mice; [3]): did not induce overt signs of toxicity
